Test results taken from publication PMC9124818 (Pharmacology Research & Perspectives, 2022).
Like-named read-outs stand apart in the source and are kept apart here.

Tests used:
[1] = test system: cultured human hepatocytes; assay: Cytotoxicity: LDH release and microscopic evaluation; type: cell-based; settings: for hepatocyte morphology: up to 40 μM FFA or 50 μM nFFA for 3 consecutive days; for LDH release: up to 40 μM FFA or 50 μM nFFA, all three hepatocyte cultures
Procedure: Data were processed with KC4 Signature software (version 3.4, Rev 21, BioTek Instruments, Inc.) and graphed with Microsoft Excel 2003 (Microsoft Corp.). Percent LDH release was calculated based on the following equations: […]

OATP1B1 = target: T1, OATP1B1 (Homo sapiens, UniProt Q9Y6L6); assay: Transporter inhibition, uptake of [3H]-estradiol-17β-glucuronide in HEK293 cells; type: in vitro ADME
T1 construct: host or cells: HEK293
T1 sequence (Q9Y6L6 1-691): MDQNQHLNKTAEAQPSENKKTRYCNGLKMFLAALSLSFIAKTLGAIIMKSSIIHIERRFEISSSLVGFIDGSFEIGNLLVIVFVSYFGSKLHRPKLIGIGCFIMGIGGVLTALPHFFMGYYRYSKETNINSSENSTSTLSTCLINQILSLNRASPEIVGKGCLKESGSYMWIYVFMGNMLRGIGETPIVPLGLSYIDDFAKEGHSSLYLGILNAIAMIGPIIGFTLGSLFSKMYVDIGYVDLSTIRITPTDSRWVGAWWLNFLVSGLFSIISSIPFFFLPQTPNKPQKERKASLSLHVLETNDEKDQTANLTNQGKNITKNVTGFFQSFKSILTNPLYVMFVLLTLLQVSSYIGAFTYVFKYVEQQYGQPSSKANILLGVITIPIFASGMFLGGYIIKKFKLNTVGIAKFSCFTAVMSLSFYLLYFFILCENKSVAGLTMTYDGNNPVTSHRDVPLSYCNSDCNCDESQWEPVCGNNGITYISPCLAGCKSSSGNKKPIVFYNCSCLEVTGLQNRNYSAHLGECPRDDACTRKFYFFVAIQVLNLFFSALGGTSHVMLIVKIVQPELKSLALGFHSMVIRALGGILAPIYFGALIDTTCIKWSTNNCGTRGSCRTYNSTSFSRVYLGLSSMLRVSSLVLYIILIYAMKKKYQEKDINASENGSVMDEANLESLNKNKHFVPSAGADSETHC
Procedure: (§1) The test compound (FFA or nFFA) or the positive control substrate ([…], respectively) was added to the donor chamber. […] Cells were then washed, lysed with scintillation cocktail, and analyzed for the probe substrate with a MicroBeta scintillation counter (PerkinElmer, Hopkinton, MA). Transcellular transporter assay conditions are described in Supplemental Table 1. Calculation of IC50 values was based on bidirectional permeability of probe substrate with and without the inhibitor in MDCKII cells expressing BCRP and in Caco‐2 cells expressing P‐gp, and transporter‐dependent uptake of probe substrate in HEK293 cells expressing all other transporters (Supplemental Table 1).
(§2) The transporter-specific uptake of the probe substrate in cells was determined by subtracting the accumulation in the control cells from the accumulation in the transporter-expressing cells.

OATP1B3 = target: T2, OATP1B3 (Homo sapiens, UniProt Q9NPD5); assay: as above; type: in vitro ADME
T2 construct: host or cells: HEK293
T2 sequence (Q9NPD5 1-702): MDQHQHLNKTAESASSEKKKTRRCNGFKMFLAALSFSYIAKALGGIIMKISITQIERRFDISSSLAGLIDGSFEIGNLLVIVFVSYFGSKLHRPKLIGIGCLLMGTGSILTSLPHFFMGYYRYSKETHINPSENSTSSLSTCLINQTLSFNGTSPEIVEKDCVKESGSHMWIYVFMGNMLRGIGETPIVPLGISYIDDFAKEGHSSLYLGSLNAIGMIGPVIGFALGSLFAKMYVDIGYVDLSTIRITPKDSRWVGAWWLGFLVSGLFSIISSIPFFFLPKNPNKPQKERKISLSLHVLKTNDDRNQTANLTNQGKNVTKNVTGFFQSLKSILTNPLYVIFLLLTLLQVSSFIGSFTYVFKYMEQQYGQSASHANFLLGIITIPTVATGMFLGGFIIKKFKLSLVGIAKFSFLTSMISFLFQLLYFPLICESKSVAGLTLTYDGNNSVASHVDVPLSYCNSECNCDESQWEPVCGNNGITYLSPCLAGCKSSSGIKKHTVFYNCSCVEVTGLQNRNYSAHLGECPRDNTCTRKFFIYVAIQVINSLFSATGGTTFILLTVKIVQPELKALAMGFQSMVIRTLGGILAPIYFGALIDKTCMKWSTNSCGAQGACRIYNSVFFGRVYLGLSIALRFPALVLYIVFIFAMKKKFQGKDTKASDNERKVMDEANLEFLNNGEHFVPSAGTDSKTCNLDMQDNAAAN
Procedure: as §1, §2

[2] = Pharmacokinetic input parameters of the mechanistic static model (population pharmacokinetics); settings: for Portal inlet [I]h: calculated as (Imax + (Fa × Fg × ka × molar dose) / Qh) / Rb; for Cmax, unbound: calculated as Cmax, total (ng/mL)/MW * fu
CYP1A2 = target: T3, CYP1A2 (Homo sapiens, UniProt P05177); assay: Direct CYP450 inhibition in human liver microsomes (phenacetin O-dealkylation)
T3 sequence (P05177 1-516): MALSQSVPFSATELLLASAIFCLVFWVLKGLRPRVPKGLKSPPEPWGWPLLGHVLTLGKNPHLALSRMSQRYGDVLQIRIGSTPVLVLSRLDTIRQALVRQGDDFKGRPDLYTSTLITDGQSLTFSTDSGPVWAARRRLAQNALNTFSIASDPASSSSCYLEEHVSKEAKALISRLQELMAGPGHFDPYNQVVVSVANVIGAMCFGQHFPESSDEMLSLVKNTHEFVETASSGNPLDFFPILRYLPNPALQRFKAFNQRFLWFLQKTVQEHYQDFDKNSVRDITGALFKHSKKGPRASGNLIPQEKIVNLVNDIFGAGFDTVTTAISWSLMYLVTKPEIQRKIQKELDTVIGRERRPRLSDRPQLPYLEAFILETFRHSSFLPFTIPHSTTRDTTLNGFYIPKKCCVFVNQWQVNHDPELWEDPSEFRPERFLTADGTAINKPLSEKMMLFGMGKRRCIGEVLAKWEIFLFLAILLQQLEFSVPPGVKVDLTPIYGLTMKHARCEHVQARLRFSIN
Text: (§3) A mixed‐gender pool of 200 individual human liver microsomal samples was used.
(§4) This LIMS utilizes the Levenberg-Marquardt algorithm to perform nonlinear regression fitting of the data to the following 4-parameter sigmoidal-logistic IC50 equation:
(§5) As percent of control values are utilized, the Min is set to 0 and the Max is set to 100 (or other values, as appropriate). […] Therefore, when an IC50 value falls outside the concentration range studied, the IC50 values are reported to be greater than the highest concentrations of test article evaluated.

CYP2C9 = CYP2C9 (Homo sapiens, UniProt P11712); assay: Direct CYP450 inhibition in human liver microsomes (diclofenac 4'-hydroxylation)
CYP2C9, sequence (P11712 whole entry): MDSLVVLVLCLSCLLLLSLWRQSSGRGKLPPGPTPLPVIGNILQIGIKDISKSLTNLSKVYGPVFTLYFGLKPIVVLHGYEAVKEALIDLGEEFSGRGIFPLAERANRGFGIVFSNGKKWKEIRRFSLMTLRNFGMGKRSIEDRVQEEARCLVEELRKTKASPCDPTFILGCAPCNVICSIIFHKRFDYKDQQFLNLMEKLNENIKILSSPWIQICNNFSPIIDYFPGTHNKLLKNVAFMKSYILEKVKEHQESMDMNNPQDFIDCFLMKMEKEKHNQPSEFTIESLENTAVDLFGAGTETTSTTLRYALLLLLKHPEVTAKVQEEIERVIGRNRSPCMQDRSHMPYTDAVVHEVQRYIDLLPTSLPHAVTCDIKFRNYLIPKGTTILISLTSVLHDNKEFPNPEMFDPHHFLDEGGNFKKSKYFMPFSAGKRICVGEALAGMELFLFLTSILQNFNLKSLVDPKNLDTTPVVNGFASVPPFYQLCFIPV
Text: as §3, §4, §5

CYP3A4/5 = assay: Direct CYP450 inhibition in human liver microsomes (midazolam 1'-hydroxylation; testosterone 6β-hydroxylation); settings: for Basic model: R1,gut: R1,gut = 1 + (Igut/Ki,u); for Basic model: R1: R1 = 1 + (Imax,u/Ki,u)
Text: as §3, §4, §5

[3] = HEK293, probe [3H]-estradiol-17β-glucuronide 50 nM, read-out: IC50

Row | Structure (SMILES) | hepatocyte morphology [1] | LDH release [1] [% positive control] | Portal inlet [I]h [2] [µM] | Cmax, unbound [2] [µM] | Basic model: Potential for clinical inhibition (CYP1A2; substrate phenacetin) | Static mechanistic model: Potential for clinical inhibition (CYP1A2; substrate phenacetin) | Basic model: Potential for clinical inhibition (CYP2C9; substrate diclofenac) | Static mechanistic model: Potential for clinical inhibition (CYP2C9; substrate diclofenac) | Basic model: Potential for clinical inhibition (R1) (CYP3A4/5; substrate midazolam) | Static mechanistic model: Potential for clinical inhibition (CYP3A4/5; substrate midazolam) | Basic model: Potential for clinical inhibition (R1) (CYP3A4/5; substrate testosterone) | Static mechanistic model: Potential for clinical inhibition (CYP3A4/5; substrate testosterone) | Basic model: R1 (CYP3A4/5; substrate testosterone) | further results
1 | CCNC(C)Cc1cccc(C(F)(F)F)c1 (racemic) [FFA, (RS)‐ethyl(α‐methyl‐3‐trifluoromethylphenethyl)amine, reference compound] | No morphological changes | ≤ 8.5 | 0.362 | 0.162 | No (Potential to inhibit if R1 ≥ 1.02) | No (Potential to inhibit if AUCR ≥ 1.25) | No (Potential to inhibit if R1 ≥ 1.02) | No (Potential to inhibit if AUCR ≥ 1.25) | No No ^b (Potential to inhibit if R1 ≥ 1.02) | No (Potential to inhibit if AUCR ≥ 1.25) | No No ^b (Potential to inhibit if R1 ≥ 1.02) | No (Potential to inhibit if AUCR ≥ 1.25) | 1.00 | IC50 (OATP1B1): > 300 µM; IC50 (OATP1B3): > 300 µM; IC50 (CYP1A2): > 60 µM; IC50 (CYP2C9): > 60 µM; Inhibition (%) (CYP2C9; direct inhibition, substrate diclofenac, FFA up to 60 µM, nFFA up to 100 µM): 2.4%; Basic model: R1 (CYP2C9; substrate diclofenac, R1 = 1 + (Imax,u/Ki,u)): 1.01; IC50 (CYP3A4/5; both, human, pooled human liver microsomes, pH 7.4, probe midazolam (1'-hydroxylation)): > 600 µM; IC50 (CYP3A4/5; both, human, pooled human liver microsomes, pH 7.4, probe testosterone (6β-hydroxylation)): > 600 µM; Basic model: Potential for clinical inhibition (R1,gut) (CYP3A4/5; substrate midazolam): No No ^b (Potential to inhibit if R1,gut ≥ 11); Basic model: R1,gut (CYP3A4/5; substrate midazolam): NC R1,gut = 1.78; Basic model: Potential for clinical inhibition (R1,gut) (CYP3A4/5; substrate testosterone): No No ^b (Potential to inhibit if R1,gut ≥ 11); Basic model: R1,gut (CYP3A4/5; substrate testosterone): 1.81
2 | CC(N)Cc1cccc(C(F)(F)F)c1.Cl (centres unmarked) [nFFA, [1‐(3‐trifluoromethyl)phenyl]propan‐2‐amine hydrochloride] | No morphological changes | ≤ 13.8 | 0.094 | 0.094 | No (Potential to inhibit if R1 ≥ 1.02) | No (Potential to inhibit if AUCR ≥ 1.25) | No (Potential to inhibit if R1 ≥ 1.02) | No (Potential to inhibit if AUCR ≥ 1.25) | No (Potential to inhibit if R1 ≥ 1.02) | No (Potential to inhibit if AUCR ≥ 1.25) | No (Potential to inhibit if R1 ≥ 1.02) | No (Potential to inhibit if AUCR ≥ 1.25) | 1.00 | IC50 (OATP1B1; [3]): > 50 µM; IC50 (OATP1B3; [3]): > 50 µM; IC50 (CYP1A2; direct inhibition, human liver microsomes, substrate phenacetin): > 100 µM; IC50 (CYP2C9; direct inhibition, human liver microsomes, substrate diclofenac): > 100 µM; IC50 (CYP3A4/5; direct inhibition, human liver microsomes, substrate midazolam): > 100 µM; IC50 (CYP3A4/5; direct inhibition, human liver microsomes, substrate testosterone): > 100 µM
